Test results from publication PMC4580987, “Catalytic site inhibition of insulin-degrading enzyme by a small molecule induces glucose intolerance in mice” (Nature Communications, 2015).

Assays:
mice = test system: mice; set-up: method as in Maianti et al, Nature 2014; conditions: ref Maianti et al, Nature 2014, cited from earlier work
hIDE [1] = target: T1, hIDE (Homo sapiens, UniProt P14735); test: In vitro hIDE inhibition of Aβ16–23-based substrate hydrolysis; type: biochemical; conditions: for inhibition at 100 µM: 100 µM (footnote c)
T1 construct: made in house
T1 sequence (P14735 1-1019): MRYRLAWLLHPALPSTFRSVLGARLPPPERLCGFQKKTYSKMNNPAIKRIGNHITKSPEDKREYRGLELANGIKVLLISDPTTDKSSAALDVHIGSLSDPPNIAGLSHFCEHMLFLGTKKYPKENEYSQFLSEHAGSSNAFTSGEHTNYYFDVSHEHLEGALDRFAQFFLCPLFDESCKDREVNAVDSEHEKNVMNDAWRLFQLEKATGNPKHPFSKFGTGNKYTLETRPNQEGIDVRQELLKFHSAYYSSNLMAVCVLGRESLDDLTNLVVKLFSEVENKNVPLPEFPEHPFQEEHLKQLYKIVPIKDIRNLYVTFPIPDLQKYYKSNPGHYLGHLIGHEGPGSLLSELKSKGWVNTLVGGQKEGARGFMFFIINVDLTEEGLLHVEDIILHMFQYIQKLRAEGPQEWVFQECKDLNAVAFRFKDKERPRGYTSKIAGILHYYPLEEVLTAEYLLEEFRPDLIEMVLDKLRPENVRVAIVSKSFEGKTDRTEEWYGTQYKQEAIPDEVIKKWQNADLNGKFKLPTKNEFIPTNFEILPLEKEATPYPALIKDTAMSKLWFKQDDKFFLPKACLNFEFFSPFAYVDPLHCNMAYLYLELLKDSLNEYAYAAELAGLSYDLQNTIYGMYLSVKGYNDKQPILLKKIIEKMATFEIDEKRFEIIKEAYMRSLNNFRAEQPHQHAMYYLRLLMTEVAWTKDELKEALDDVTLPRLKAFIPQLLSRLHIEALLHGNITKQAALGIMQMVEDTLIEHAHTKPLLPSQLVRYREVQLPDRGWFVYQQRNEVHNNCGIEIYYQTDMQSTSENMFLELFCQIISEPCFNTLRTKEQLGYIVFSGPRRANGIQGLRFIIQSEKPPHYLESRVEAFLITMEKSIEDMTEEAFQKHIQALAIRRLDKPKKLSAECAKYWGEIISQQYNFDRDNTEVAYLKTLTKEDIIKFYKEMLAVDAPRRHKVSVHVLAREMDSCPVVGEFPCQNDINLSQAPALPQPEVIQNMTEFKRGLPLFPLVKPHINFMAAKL
Description: In vitro IDE activity was measured with a quenched substrate […]. Human recombinant IDE was cloned and purified as previously described. […] All measurements were carried out as 8-point dose response curves and reported as the average of at least three independent measurements. […] Data analysis was performed using Xlfit v 5.0 and GraphPad Prism v 4.0. Nonlinear curve fitting and statistical analysis was done using built-in functions.

hIDE [2] = target: T1, hIDE; test: In vitro hIDE inhibition of insulin hydrolysis; type: biochemical; conditions: for IC50: full insulin substrate, value (CI 95%), mean of 3 to 10 experiments, read-out: IC50 insulin hydrolysis
Description: The enzymatic activity of hIDE was assayed quantifying the amount of insulin (Actrapid) at the end of the reaction. The quantity of insulin was determined using a Luminex kit (HMHMAG-34K, Millipore). 20 μl of WT IDE in Hepes buffer (50 mM with 100 mM NaCl, pH 7.4) at 1 μg ml^−1 were pre-incubated 10 min at ambient temperature with 20 μl of test compound or vehicle in 96-well microtiter plates (dark, non-binding surface). The reaction was then started by the addition of 40 μl of insulin at 40 nM. The final concentration of hIDE and substrate was 0.25 μg ml^−1 and 20 nM, respectively. Incubations were performed at ambient temperature for 10 min. The reaction was then stopped by addition of 80 μl of 200 mM EDTA. The samples were diluted by a factor of 3, and 15 μl were transferred to 96-well microtiter plates (dark, clear bottom, non-binding surface) containing 15 μl of assay buffer (from Luminex Kit). Fifteen microlitre of insulin magnetic beads were added. Incubation was performed during 16–18 h at 4 °C under agitation. Wells were washed three times and 30 μl of hormone panel antibodies were added. The samples were incubated 30 min at ambient temperature under agitation. 30 μl of strepdavidin-phycoerythrin were added. Incubation was performed 30 min at ambient temperature under agitation. Wells were washed three times and 80 μl of drive fluid were added. The plate was then read with the MagPix apparatus. Data analysis was performed using Xlfit v 5.0 and GraphPad Prism v 4.0. Nonlinear curve fitting and statistical analysis was done using equation 1: […]
where A is minimum value of y; B is range of y; C is the IC50 value and D is slope factor.

[3] = test system: human SY5Y neuroblastoma cells; test: Aβ1–40 secretion by differentiated SH-SY5Y cells (ELISA); type: cell-based; conditions: 10 μM and 30 μM, 48 h
Description: The human neuroblastoma cell lines SH-SY5Y were provided from ATCC (cat. no. crl2266) with a Certificate of Analysis and not checked in the lab for mycoplasma contamination. […] SH-SY5Y were seeded in a 96-well plate at 200,000 cells per cm^2. […] Differentiated cells were then incubated with compounds at 10 μM and 30 μM in presence of 0.1% DMSO.

hIDE [4] = target: T1, hIDE; test: 19F NMR ligand-observed interaction with the enzyme; type: binding; conditions: 5 μM enzyme
Description: […] The carrier frequency was set at −100 p.p.m. with a spectral window of 40 ppm, and 4,024 scans were recorded per sample, except for the 6.25 μM sample for which 12,288 scans were recorded.

Row | Structure (SMILES) | IC50 (hIDE [1]) [µM] | IC50 (hIDE [2]) [µM] | further results
1 | NCCCC[C@@H]1NC(=O)/C=C/C(=O)N[C@H](C(N)=O)CCCCNC(=O)[C@@H](Cc2ccc(C(=O)c3ccccc3)cc2)NC(=O)[C@H](CC2CCCCC2)NC1=O [6bK] |  |  | glucose tolerance in OGTT, 6bK (mice; IDE dependant, GLP-1 dependant, insulin driven): Improves glucose tolerance in OGTT; glucose tolerance in IPGTT, 6bK (mice; IDE dependant): Impairs glucose tolerance in IPGTT; gluconeogenesis in a pyruvate tolerance test, 6bK (mice): Lowers gluconeogenesis; insulin action in vivo (ITT), 6bK (mice): Augments insulin action in vivo
2 | Cc1ccc(C(=O)NCc2cn(C(CC(=O)NO)Cc3ccccc3)nn2)cc1 (centres unmarked) [Compound 10] | > 100 | 6.1 | inhibition at 100 µM (hIDE [1]): < 10%; fold less active than 1 against purified IDE (hIDE [2]; relative to compound 1): 100 fold; Aβ1–40 in culture supernatants [3]: had no effect
3 | O=C(O)C[C@@H](Cc1ccc2ccccc2c1)n1cc(CNC(=O)c2ccc(F)cc2)nn1 [Compound 14] | > 100 | 30 | 
4 | O=C(C[C@@H](Cc1ccc2ccccc2c1)n1nncc1CNC(=O)c1ccc(F)cc1)NO [Compound 16] | > 100 | 12.1 | 19F NMR signal in the presence of enzyme at 2:1 or 1:1 compound:enzyme ratio (hIDE [4]): signal intensity remains detectable; inhibition at 100 µM (hIDE [1]): < 10%
5 | O=C(C[C@@H](Cc1ccc2ccccc2c1)n1nncc1CNC(=O)C1CCCCC1)NO [Compound 17] | > 100 | 30 | inhibition at 100 µM (hIDE [1]): < 10%
6 | O=C(CC(Cc1ccccc1)n1cc(CNC(=O)c2ccc(F)cc2)nn1)NO (centres unmarked) [Compound 19] | 80 | > 100 | inhibition at 300 µM (hIDE [2]; 300 µM (footnote d)): 50%
7 | O=C(O)CN(CCN(CC(=O)O)CC(=O)O)CC(=O)O [EDTA, reference compound] |  |  | inhibition of IDE by reference inhibitor (hIDE [1]; 2 mM): 100%

Now from value to compound, other results behind:

Row | IC50 (hIDE [1]) [µM] | IC50 (hIDE [2]) [µM] | Structure (SMILES) | further results
8 | 0.7 | 0.51 | O=C(C[C@@H](Cc1ccc2ccccc2c1)n1cc(CNC(=O)c2ccccc2)nn1)NO [Compound 2] | melting point: 192.8 to 194 °C
9 | 2.7 | 6.7 | Cc1ccc(C(=O)NCc2cn([C@@H](CC(=O)NO)Cc3ccc4ccccc4c3)nn2)cc1 [Compound 3] | melting point: 181.7 to 182.6 °C
10 | 4.5 | 3.4 | COc1ccc(C(=O)NCc2cn([C@@H](CC(=O)NO)Cc3ccc4ccccc4c3)nn2)cc1 [Compound 4] | melting point: 178.3 to 179.6 °C
11 | 0.8 | 0.44 | O=C(C[C@@H](Cc1ccc2ccccc2c1)n1cc(CNC(=O)C2CCCCC2)nn1)NO [Compound 5] | melting point: 176.6 to 177.9 °C
12 | 3.2 | 0.74 | O=C(C[C@@H](Cc1ccc2ccccc2c1)n1cc(CNC(=O)Cc2ccccc2)nn1)NO [Compound 6] | 
13 | 12 | 2.3 | Cc1ccc(CC(=O)NCc2cn([C@@H](CC(=O)NO)Cc3ccc4ccccc4c3)nn2)cc1 [Compound 7] | 
14 | 5.7 | 6 | O=C(C[C@@H](Cc1ccc2ccccc2c1)n1cc(CNS(=O)(=O)c2ccc(F)cc2)nn1)NO [Compound 9] | melting point: 157.1 to 158.7 °C
15 | 74 | 9.6 | O=C(CC(Cc1ccc2ccccc2c1)c1nc(CNC(=O)c2ccccc2)no1)NO (centres unmarked) [Compound 11] | 
16 | 29 | 6.5 | O=C(C[C@@H](Cc1ccc2ccccc2c1)c1nc(CNC(=O)c2ccc(F)cc2)no1)NO [Compound 12] | 
17 | 2.8 | 2 | O=C(C[C@H](Cc1ccc2ccccc2c1)n1cc(CNC(=O)c2ccc(F)cc2)nn1)NO [Compound 15] | 
